# The supplement of paper PMC10307832
# Key:
# Experiment in all cases: relative viability (nuclei count vs DMSO), 5 days (fraction); higher = more cells survive
# NCI-H520 = tested on: NCI-H520
# Method in brief: (§1)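 Lung cancer cell lines in 1536-well plates were dosed by pin tool the day after seeding, either with one drug alone or with a fixed anchor-drug dose plus five library-drug doses (not always all listed) in √10 steps. After 5 days, cells were fixed and their nuclei stained in one step (final 0.05% Triton X-100, 1% formaldehyde, 1 ug/ml Hoechst), then counted on 4× images. Relative viability is the nuclei count in treated wells divided by that in vehicle wells. Values are medians of duplicate plates.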
# NCI-H1651 = tested on: NCI-H1651
# Method in brief: as §1
# NCI-H1944 = tested on: NCI-H1944
# Method in brief: as §1
# 201T = tested on: 201T
# Method in brief: as §1
# PC-3 [JPC-3] = tested on: PC-3 [JPC-3]
# Method in brief: as §1
# BEN = tested on: BEN
# Method in brief: as §1
# A-427 = tested on: A-427
# Method in brief: as §1
# NCI-H441 = tested on: NCI-H441
# Method in brief: as §1
# LCLC-97TM1 = tested on: LCLC-97TM1
# Method in brief: as §1
# NCI-H596 = tested on: NCI-H596
# Method in brief: as §1
# HCC-15 = tested on: HCC-15
# Method in brief: as §1
# NCI-H1792 = tested on: NCI-H1792
# Method in brief: as §1
# CAL-12T = tested on: CAL-12T
# Method in brief: as §1
# NCI-H2087 = tested on: NCI-H2087
# Method in brief: as §1
# NCI-H2023 = tested on: NCI-H2023
# Method in brief: as §1
# NCI-H1915 = tested on: NCI-H1915
# Method in brief: as §1
# NCI-H460 = tested on: NCI-H460
# Method in brief: as §1
# NCI-H661 = tested on: NCI-H661
# Method in brief: as §1
# NCI-H650 = tested on: NCI-H650
# Method in brief: as §1
# NCI-H1650 = tested on: NCI-H1650
# Method in brief: as §1
# LC-2-ad = tested on: LC-2-ad
# Method in brief: as §1
# H3255 = tested on: H3255
# Method in brief: as §1
compound,measurement,setting,value
Clc1ccc(Nc2nnc(Cc3ccncc3)c3ccccc23)cc1 [Vatalanib] + Nc1nc2[nH]cc(CCc3ccc(C(=O)N[C@@H](CCC(=O)O)C(=O)O)cc3)c2c(=O)[nH]1 [Pemetrexed] (partner 0.2 µM),relative viability,NCI-H520; first compound 0.04 µM,0.676
same,relative viability,NCI-H520; first compound 0.1265 µM,0.654
same,relative viability,NCI-H520; first compound 0.4 µM,0.751
same,relative viability,NCI-H520; first compound 1.265 µM,0.625
same,relative viability,NCI-H520; first compound 4 µM,0.62
same,relative viability,NCI-H1651; first compound 0.04 µM,0.512
same,relative viability,NCI-H1651; first compound 0.1265 µM,0.558
same,relative viability,NCI-H1651; first compound 0.4 µM,0.496
same,relative viability,NCI-H1651; first compound 1.265 µM,0.543
same,relative viability,NCI-H1651; first compound 4 µM,0.526
same,relative viability,NCI-H1944; first compound 0.04 µM,0.544
same,relative viability,NCI-H1944; first compound 0.1265 µM,0.669
same,relative viability,NCI-H1944; first compound 0.4 µM,0.63
same,relative viability,NCI-H1944; first compound 1.265 µM,0.583
same,relative viability,NCI-H1944; first compound 4 µM,0.558
same,relative viability,201T; first compound 0.04 µM,0.305
same,relative viability,201T; first compound 0.1265 µM,0.335
same,relative viability,201T; first compound 0.4 µM,0.337
same,relative viability,201T; first compound 1.265 µM,0.359
same,relative viability,201T; first compound 4 µM,0.311
same,relative viability,PC-3 [JPC-3]; first compound 0.04 µM,1.02
same,relative viability,PC-3 [JPC-3]; first compound 0.1265 µM,0.943
same,relative viability,PC-3 [JPC-3]; first compound 0.4 µM,0.803
same,relative viability,PC-3 [JPC-3]; first compound 1.265 µM,0.456
same,relative viability,PC-3 [JPC-3]; first compound 4 µM,0.964
same,relative viability,BEN; first compound 0.04 µM,0.662
same,relative viability,BEN; first compound 0.1265 µM,0.659
same,relative viability,BEN; first compound 0.4 µM,0.443
same,relative viability,BEN; first compound 1.265 µM,0.681
same,relative viability,BEN; first compound 4 µM,0.743
same,relative viability,A-427; first compound 0.04 µM,0.98
same,relative viability,A-427; first compound 0.1265 µM,0.957
same,relative viability,A-427; first compound 0.4 µM,0.993
same,relative viability,A-427; first compound 4 µM,0.947
same,relative viability,NCI-H441; first compound 0.04 µM,0.249
same,relative viability,NCI-H441; first compound 0.1265 µM,0.215
same,relative viability,NCI-H441; first compound 0.4 µM,0.257
same,relative viability,NCI-H441; first compound 1.265 µM,0.265
same,relative viability,NCI-H441; first compound 4 µM,0.274
same,relative viability,LCLC-97TM1; first compound 0.04 µM,0.2
same,relative viability,LCLC-97TM1; first compound 0.1265 µM,0.177
same,relative viability,LCLC-97TM1; first compound 0.4 µM,0.177
same,relative viability,LCLC-97TM1; first compound 1.265 µM,0.149
same,relative viability,LCLC-97TM1; first compound 4 µM,0.172
same,relative viability,NCI-H596; first compound 0.04 µM,0.482
same,relative viability,NCI-H596; first compound 0.1265 µM,0.488
same,relative viability,NCI-H596; first compound 0.4 µM,0.524
same,relative viability,NCI-H596; first compound 1.265 µM,0.514
same,relative viability,NCI-H596; first compound 4 µM,0.47
same,relative viability,HCC-15; first compound 0.04 µM,0.234
same,relative viability,HCC-15; first compound 0.1265 µM,0.218
same,relative viability,HCC-15; first compound 0.4 µM,0.225
same,relative viability,HCC-15; first compound 1.265 µM,0.235
same,relative viability,HCC-15; first compound 4 µM,0.219
same,relative viability,NCI-H1792; first compound 0.04 µM,0.902
same,relative viability,NCI-H1792; first compound 0.1265 µM,0.781
same,relative viability,NCI-H1792; first compound 0.4 µM,0.771
same,relative viability,NCI-H1792; first compound 1.265 µM,0.817
same,relative viability,NCI-H1792; first compound 4 µM,0.699
same,relative viability,CAL-12T; first compound 0.04 µM,1.15
same,relative viability,CAL-12T; first compound 0.1265 µM,1.15
same,relative viability,CAL-12T; first compound 0.4 µM,1.19
same,relative viability,CAL-12T; first compound 1.265 µM,1.12
same,relative viability,CAL-12T; first compound 4 µM,1.22
same,relative viability,NCI-H2087; first compound 0.04 µM,0.666
same,relative viability,NCI-H2087; first compound 0.1265 µM,0.659
same,relative viability,NCI-H2087; first compound 0.4 µM,0.685
same,relative viability,NCI-H2087; first compound 1.265 µM,0.64
same,relative viability,NCI-H2087; first compound 4 µM,0.682
same,relative viability,NCI-H2023; first compound 0.04 µM,0.263
same,relative viability,NCI-H2023; first compound 0.1265 µM,0.21
same,relative viability,NCI-H2023; first compound 0.4 µM,0.215
same,relative viability,NCI-H2023; first compound 1.265 µM,0.242
same,relative viability,NCI-H2023; first compound 4 µM,0.202
same,relative viability,NCI-H1915; first compound 0.04 µM,0.505
same,relative viability,NCI-H1915; first compound 0.1265 µM,0.558
same,relative viability,NCI-H1915; first compound 0.4 µM,0.53
same,relative viability,NCI-H1915; first compound 1.265 µM,0.477
same,relative viability,NCI-H1915; first compound 4 µM,0.498
same,relative viability,NCI-H460; first compound 0.04 µM,0.0651
same,relative viability,NCI-H460; first compound 0.1265 µM,0.0511
same,relative viability,NCI-H460; first compound 0.4 µM,0.0612
same,relative viability,NCI-H460; first compound 1.265 µM,0.0684
same,relative viability,NCI-H460; first compound 4 µM,0.0605
same,relative viability,NCI-H661; first compound 0.04 µM,0.868
same,relative viability,NCI-H661; first compound 0.1265 µM,0.906
same,relative viability,NCI-H661; first compound 0.4 µM,0.996
same,relative viability,NCI-H661; first compound 1.265 µM,0.905
same,relative viability,NCI-H661; first compound 4 µM,0.936
same,relative viability,NCI-H650; first compound 0.04 µM,0.931
same,relative viability,NCI-H650; first compound 0.1265 µM,0.833
same,relative viability,NCI-H650; first compound 0.4 µM,1.03
same,relative viability,NCI-H650; first compound 1.265 µM,0.885
same,relative viability,NCI-H650; first compound 4 µM,0.996
same,relative viability,NCI-H1650; first compound 0.04 µM,0.359
same,relative viability,NCI-H1650; first compound 0.1265 µM,0.305
same,relative viability,NCI-H1650; first compound 0.4 µM,0.323
same,relative viability,NCI-H1650; first compound 1.265 µM,0.388
same,relative viability,NCI-H1650; first compound 4 µM,0.388
same,relative viability,LC-2-ad; first compound 0.04 µM,0.267
same,relative viability,LC-2-ad; first compound 0.1265 µM,0.27
same,relative viability,LC-2-ad; first compound 0.4 µM,0.275
same,relative viability,LC-2-ad; first compound 1.265 µM,0.267
same,relative viability,LC-2-ad; first compound 4 µM,0.288
same,relative viability,H3255; first compound 0.04 µM,0.543
same,relative viability,H3255; first compound 0.1265 µM,0.536
same,relative viability,H3255; first compound 0.4 µM,0.529
same,relative viability,H3255; first compound 1.265 µM,0.512
same,relative viability,H3255; first compound 4 µM,0.523
